According to US8143227B2, “Azithromycin for treatment of skin disorders” (priority 2008, dated 2012):
Read-outs that look alike come from different tables or passages of the source.

Legend:
acne [1] = conditions: Elewski, cited from earlier work
moderate to severe acne = experiment: Efficacy against acne (lesion counts), 40/80/120 mg per day; format: in vivo, human
Experimental: The subjects of Example 1 were evaluated for efficacy of each dosage (40 mg, 80 mg, or 120 mg per day) in treating moderate to severe acne following treatment for 6 weeks. Before starting the treatment protocol, the number of facial non-inflammatory lesions (open and closed comedones), inflammatory lesions (papules, pustules, and nodules), and nodules were counted. The numbers of these lesions were counted again at day 21 of treatment and at day 42. The % decrease from Day 0 was calculated as the mean of the differences for each of the parameters (non-inflammatory lesions, inflammatory lesion and nodules) for each individual subject on Day 21 and Day 42. The results, including average lesion counts and efficacy assessment by percent decrease in lesion counts, are shown for the 40 mg, 80 mg, and 120 mg group, respectively, in Tables 4, 5, and 6.

acne [2] = conditions: 500 mg three times per week; Kapadia 2004; cited from earlier work
[3] = Azithromycin levels in sebum (Sebutape patches); format: in vivo, human; conditions: for concentration at 42 day: human, sebum, oral
Experimental: Sebum was collected from the subjects of Example 1 by use of Sebutape® (CuDerm Corporation, Dallas Tex.). On study days 0, 21, 42, and 70, each subject placed three Sebutape® adhesive patches on each of the forehead, and left and right cheeks on the skin of the face and left the patches in place for 30 to 40 minutes. The patches were then removed, folded in half with the adhesive side inward, placed in a sealed glass vial, and frozen at −20° C. to −70° C. […] Each Sebutape® patch was analyzed for quantity in nanograms of azithromycin.

[4] = 40 mg/day for 6 weeks, Day 0 (before treatment)
[5] = 80 mg/day for 6 weeks, Day 0 (before treatment)
[6] = 120 mg/day for 6 weeks, Day 0 (before treatment)

## CC[C@H]1OC(=O)[C@H](C)[C@@H](O[C@H]2C[C@@](C)(OC)[C@@H](O)[C@H](C)O2)[C@H](C)[C@@H](O[C@@H]2O[C@H](C)C[C@H](N(C)C)[C@H]2O)[C@](C)(O)C[C@@H](C)CN(C)[C@H](C)[C@@H](O)[C@]1(C)O [Azithromycin, 9-deoxo-9a-aza-9a-methyl-9a-homoerythromycin A]
Acne [1]; 500 mg day 1, then 250 mg/day for 4 days, from 1st and 15th of each month, 3 months
  improvement in acne: all patients treated with this azithromycin regimen showed improvement
Acne [1]; same regimen
  subjects who experienced gastrointestinal side effects: only one of twenty subjects
Moderate to severe acne; [4]
  Inflammatory lesions (average count): 30.1
  Nodules (average count): 5.2
  Non-inflammatory lesions (average count): 36.5
Moderate to severe acne; 40 mg/day for 6 weeks, Day 21
  Inflammatory lesions % Decrease from Day 0: 51.5%
  Inflammatory lesions (average count): 14.4
  Nodules % Decrease from Day 0: 62.4%
  Nodules (average count): 2.2
  Non-inflammatory lesions % Decrease from Day 0: 30.4%
  Non-inflammatory lesions (average count): 23.9
Moderate to severe acne; 40 mg/day for 6 weeks, Day 42
  Inflammatory lesions % Decrease from Day 0: 54.2%
  Inflammatory lesions (average count): 13.8
  Nodules % Decrease from Day 0: 82.2%
  Nodules (average count): 1.2
  Non-inflammatory lesions % Decrease from Day 0: 38.9%
  Non-inflammatory lesions (average count): 21.5
Moderate to severe acne; [5]
  Inflammatory lesions (average count): 37.0
  Nodules (average count): 5.5
  Non-inflammatory lesions (average count): 38.7
Moderate to severe acne; 80 mg/day for 6 weeks, Day 21
  Inflammatory lesions % Decrease from Day 0: 44.7%
  Inflammatory lesions (average count): 19.8
  Nodules % Decrease from Day 0: 72.8%
  Nodules (average count): 1.5
  Non-inflammatory lesions % Decrease from Day 0: 34.7%
  Non-inflammatory lesions (average count): 24.9
Moderate to severe acne; 80 mg/day for 6 weeks, Day 42
  Inflammatory lesions % Decrease from Day 0: 53.7%
  Inflammatory lesions (average count): 17.0
  Nodules % Decrease from Day 0: 74.2%
  Nodules (average count): 1.3
  Non-inflammatory lesions % Decrease from Day 0: 24.7%
  Non-inflammatory lesions (average count): 29.3
Moderate to severe acne; [6]
  Inflammatory lesions (average count): 31.6
  Nodules (average count): 4.7
  Non-inflammatory lesions (average count): 37.7
Moderate to severe acne; 120 mg/day for 6 weeks, Day 21
  Inflammatory lesions % Decrease from Day 0: 51.9%
  Inflammatory lesions (average count): 15.6
  Nodules % Decrease from Day 0: 78.6%
  Nodules (average count): 1.0
  Non-inflammatory lesions % Decrease from Day 0: 28.1%
  Non-inflammatory lesions (average count): 27.8
Moderate to severe acne; 120 mg/day for 6 weeks, Day 42
  Inflammatory lesions % Decrease from Day 0: 52.9%
  Inflammatory lesions (average count): 14.8
  Nodules % Decrease from Day 0: 73.7%
  Nodules (average count): 1.1
  Non-inflammatory lesions % Decrease from Day 0: 38.9%
  Non-inflammatory lesions (average count): 23.2
Moderate to severe acne; any of 40, 80, or 120 mg per day, at 21 days and at 42 days
  number of inflammatory acne lesions: marked decrease
Moderate to severe acne; any of 40, 80, or 120 mg, at both 21 and 42 days
  number of facial nodules: marked decrease
Moderate to severe acne; daily treatment at each dosage level tested, 40, 80, or 120 mg
  response of non-inflammatory acne lesions: responded favorably
Moderate to severe acne; examination at 21 days after initiation of treatment, daily administration
  resolution of existing nodules: Complete resolution of existing nodules in several subjects
Acne [2]
  subjects with adverse events: 11%
  treatment of acne: successful treatment
[3]; 40 mg/day, Day 0
  Sebum Concentration (median) ng per sample: 0.00 ng per sample
[3]; 40 mg/day, Day 0, ng per sample divided by 1.38 mg
  Sebum Concentration (median): .00 ng/mg
[3]; 40 mg/day, Day 0, ng/mg times […]
  Sebum Concentration (median): .00 ng/µL
[3]; 40 mg/day, Day 21
  Sebum Concentration (median) ng per sample: 0.00 ng per sample
[3]; 40 mg/day, Day 21, ng per sample divided by 1.38 mg
  Sebum Concentration (median): .00 ng/mg
[3]; 40 mg/day, Day 21, ng/mg times […]
  Sebum Concentration (median): .00 ng/µL
[3]; 40 mg/day, Day 42
  Sebum Concentration (median) ng per sample: 0.19 ng per sample
[3]; 40 mg/day, Day 42, ng per sample divided by 1.38 mg
  Sebum Concentration (median): .14 ng/mg
[3]; 40 mg/day, Day 42, ng/mg times […]
  Sebum Concentration (median): .12 ng/µL
[3]; 40 mg/day, Day 70 (28 days after last dose)
  Sebum Concentration (median) ng per sample: 0.00 ng per sample
[3]; 40 mg/day, Day 70, ng per sample divided by 1.38 mg
  Sebum Concentration (median): .00 ng/mg
[3]; 40 mg/day, Day 70, ng/mg times […]
  Sebum Concentration (median): .00 ng/µL
[3]; 80 mg/day, Day 0
  Sebum Concentration (median) ng per sample: 0.00 ng per sample
[3]; 80 mg/day, Day 0, ng per sample divided by 1.38 mg
  Sebum Concentration (median): .00 ng/mg
[3]; 80 mg/day, Day 0, ng/mg times […]
  Sebum Concentration (median): .00 ng/µL
[3]; 80 mg/day, Day 21
  Sebum Concentration (median) ng per sample: 0.79 ng per sample
[3]; 80 mg/day, Day 21, ng per sample divided by 1.38 mg
  Sebum Concentration (median): .57 ng/mg
[3]; 80 mg/day, Day 21, ng/mg times […]
  Sebum Concentration (median): .50 ng/µL
[3]; 80 mg/day, Day 42
  Sebum Concentration (median) ng per sample: 0.84 ng per sample
[3]; 80 mg/day, Day 42, ng per sample divided by 1.38 mg
  Sebum Concentration (median): .61 ng/mg
[3]; 80 mg/day, Day 42, ng/mg times […]
  Sebum Concentration (median): .53 ng/µL
[3]; 80 mg/day, Day 70 (28 days after last dose)
  Sebum Concentration (median) ng per sample: 0.00 ng per sample
[3]; 80 mg/day, Day 70, ng per sample divided by 1.38 mg
  Sebum Concentration (median): .00 ng/mg
[3]; 80 mg/day, Day 70, ng/mg times […]
  Sebum Concentration (median): .00 ng/µL
[3]; 120 mg/day, Day 0
  Sebum Concentration (median) ng per sample: 0.00 ng per sample
[3]; 120 mg/day, Day 0, ng per sample divided by 1.38 mg
  Sebum Concentration (median): .00 ng/mg
[3]; 120 mg/day, Day 0, ng/mg times […]
  Sebum Concentration (median): .00 ng/µL
[3]; 120 mg/day, Day 21
  Sebum Concentration (median) ng per sample: 0.76 ng per sample
[3]; 120 mg/day, Day 21, ng per sample divided by 1.38 mg
  Sebum Concentration (median): .55 ng/mg
[3]; 120 mg/day, Day 21, ng/mg times […]
  Sebum Concentration (median): .48 ng/µL
[3]; 120 mg/day, Day 42
  Sebum Concentration (median) ng per sample: 0.88 ng per sample
[3]; 120 mg/day, Day 42, listed as azithromycin
  Sebum Concentration (median) ng per sample: about 0.88 ng per sample
[3]; 120 mg/day, Day 42, ng per sample divided by 1.38 mg
  Sebum Concentration (median): .64 ng/mg
[3]; 120 mg/day, Day 42, ng/mg times […]
  Sebum Concentration (median): .55 ng/µL
[3]; 120 mg/day, Day 70 (28 days after last dose)
  Sebum Concentration (median) ng per sample: 0.00 ng per sample
[3]; 120 mg/day, Day 70, ng per sample divided by 1.38 mg
  Sebum Concentration (median): .00 ng/mg
[3]; 120 mg/day, Day 70, ng/mg times […]
  Sebum Concentration (median): .00 ng/µL
[3]; 120 mg/day, Day 42, ng per sample divided by 1.38 mg, read-out: Sebum Concentration (median) ng/mg
  concentration at 42 day: ~640 ng/g
[3]; 120 mg/day, Day 42, ng/mg times 0.87 mg/μl, read-out: Sebum Concentration (median)
  concentration at 42 day: ~550 ng/mL
